“Also recorded” adds a separate entry of the source.
Assays:
[1] = Stability study at −20 °C; type: physicochemical
[2] = Stability study at different pH values; type: physicochemical; settings: 2 days

Row | Purity after 1 h ([1]; 1 h after purification by column chromatography) | Purity after 13 h ([1]; 13 h (one night) at −20 °C) | Purity after 20 h ([1]; 20 h, −20 °C) | SMILES | Stability study at −20 °C (degradation) ([1]; storage at −20 °C) | Stability study at pH 5 (degradation) ([2]; pH 5 (acidic)) | Stability study at pH 7 (degradation) ([2]; pH 7 (neutral))
1 | 68% | 30% | 8% | C[C@H](NP(=O)(Oc1ccccc1)O[C@H]1O[C@H](CO)[C@@H](O)[C@@H]1F)C(=O)OC1CCCCC1 (stereo partly drawn) [compound 14b, 2-deoxy-2-fluoro-D-arabinofuranose 1-O-phenyl-(cyclohexoxy-alaninyl)-phosphate] | – | – | –
2 | – | – | – | C[C@H](NP(=O)(Oc1ccccc1)O[C@H]1O[C@H](CO)[C@@H](O)C1(F)F)C(=O)OC1CCCCC1 (stereo partly drawn) [compound 25c, 2-deoxy-2,2-difluoro-D-ribofuranose 1-O-phenyl-(cyclohexoxy-alaninyl)-phosphate] | no degradation at all after 4 months; also recorded: No degradation observed after 4 months | no degradation at all after 2 days; also recorded: No degradation observed over 2 days | no degradation at all after 2 days; also recorded: No degradation observed over 2 days

Reference: PMC7127338 (Bioorganic & Medicinal Chemistry Letters, 2013)
